According to patent US7163672B2, “Pharmaceutical aerosol formulation” (AstraZeneca AB, priority 2000, dated 2007):

Assay: Surface energy by inverse gas chromatography (IGC)
Assay type: physicochemical
Settings: 35° C., powder
Description: Surface energy of the drug and the drug surfactant particles was measured by inverse gas chromatography. A silanised U-shaped column (3 mm internal diameter, 30 cm length) was packed with approximately 400 mg of the test powder and dried under nitrogen for 24 hours at 50° C. The powder bed was then allowed to settle for 24 hours at 35° C. (temperature used during the experiments) under nitrogen. The test probes used were: hexane, heptane, octane, chloroform, CCl4, benzene, acetone, tetrahydrofuran, ethyl acetate and diethyl ether. One ml of air containing a minute concentration of each gaseous probe was injected into the column and the retention time measured.

Compound | γs^D (n = 3) [mJ/m²]
CCC(=O)OCC(=O)[C@@]1(OC(=O)CC)[C@@H](C)C[C@H]2[C@@H]3CCC4=CC(=O)C=C[C@]4(C)[C@@]3(Cl)[C@@H](O)C[C@@]21C [BDP, Beclomethasone dipropionate] | 52.3
Salbutamol sulphate | 43.3
